The test system of data set [1] is DENV-2-eGFP reporter virus. Kind of data set: Cell-based anti-DENV-2 screening with DENV-2-eGFP reporter virus in BE(2)C cells. Further details: species or system type 2 dengue virus. Particulars: Dengue virus, DENV2, BE(2)-C, 24 h, read-out: DENV-2 infection %.
The test system of another data set is BE(2)C cells. Kind of data set: XTT cell proliferation assay. Format: cell-based. Particulars: Homo sapiens, 6.25 μM compound, compared to solvent control. The method, then: The cytotoxicity of candidate compounds to BE(2)C cells was evaluated by use of the cytotoxicity detection kit (LDH) (Roche), cell proliferation kit (XTT) (Roche), and Trypan blue cell counting assay. Briefly, cells were treated overnight with the candidate compounds at the indicated doses and subjected to the three assays. For LDH and XTT assays, light absorbance of the sample at 490 nm was determined by using an enzyme-linked immunosorbent assay (ELISA) reader (Molecular Devices). For Trypan blue cell counting assay, the number of viable cells was determined by use of haemocytometer. Data was normalized to solvent control and presented as a percentage.

Another data set addresses T1, purified human CaMKII (Homo sapiens, UniProt Q9UQM7).
T1 construct: MBL Internationl Corp (assay kit)
In words: CaMKII biochemical assay (CycLex CaM kinase II Assay Kit). As to conditions: syntide-2 substrate, Ca2+, calmodulin, Mg2+, ATP; normalized to solvent control. The procedure: A commercial CaMKII inhibitor, KN-62 (Selleckchem, S7422) was used as a positive control. Kinase reaction buffer without Ca^2+ was used as a negative control. The assay wells of the microtiter plate were then incubated with HRP-conjugated-anti-phospho-syntide-2 antibody, followed by addition of syntide-2. The phosphorylation reaction was stopped after incubation at room temperature for 15 minutes. Sample absorbance at 450 nm was determined by use of an ELISA reader (Molecular Devices). Data was normalized to solvent control and presented as a percentage.

Another data set deals with ZIKV PRVABC59 strain. Kind of data set: Animal study, ZIKV-infected Stat1-deficient mice. It is filed as in vivo. As to conditions: for median survival time (T50): 8 mg/kg of body weight/day oral. The procedure:
(§1) The mouse experiments were approved by the Academia Sinica Institutional Animal Care and Use Committee and performed in accordance with the guidelines. Infection was performed in mice under isoflurane anesthesia to minimize animal suffering. The DENV-2 New Guinea C strain serially passaged in mouse brain (NGC-N), kindly provided by Dr. Ching-Juh Lai (National Institutes of Health, USA) and ZIKV PRVABC59 strain were used in the animal study. Groups of 6-week-old Stat1^−/− mice were intravenously infected in the tail with 1×10^5 PFU of DENV-2 per mouse or subcutaneously infected in the footpad with 5×10^4 PFU of ZIKV per mouse. […] The mice were checked daily for severe symptoms including limb paralysis. Euthanasia of mice with severe limb paralysis was performed as the endpoint of animal survival. Mice survival was presented as percentage of survival. Mouse serum samples were collected on day 3 after infection by phlebotomy from facial vein, and the virus load was determined by plaque-forming assay.
(§2) Data are presented as mean±standard deviation and were compared by ANOVA and Bonferroni post-hoc test unless otherwise specified. Statistical significance was set at P values of <0.05 or <0.01. A survival curve was descriptively analyzed by use of SigmaPlot v10.0 (Systat software). The median survival time (T50) and P values, based on log-rank test, were determined by use of Prism v5.0 (GraphPad software). For Western blotting, the band intensity was quantified by use of ImageJ software (National Institutes of Health).

A further data set has as its system DENV-2 PL046 strain. In words: Antiviral assay, wild type DENV-2 in BE(2)C cells (IFA, Western blotting, plaque-forming assay). Format: cell-based, type 2 dengue virus. As to conditions: three hours of treatment during viral adsorption (0-3 hpi), MOI 1, Western blot.
For a further data set, the system named is ZIKV. Kind of data set: Virus binding/entry assays, ZIKV on BE(2)C cells.
A further data set has as its system DENV-2. Kind of data set: Virus binding/entry assays, DENV-2 on BE(2)C cells. It is filed as cell-based, type 2 dengue virus.
The subject of another data set is DENV-2 NGC-N strain. In words: Animal study, DENV-2-infected Stat1-deficient mice. It is filed as in vivo. As to conditions: for overall survival: 6-day treatment. The method, then: as §1, §2
Setting [2] is: immediate treatment, 4 mg/kg of body weight/day oral.
Where [3] appears, read: serum on day 3 after infection, plaque-forming assay, dose-dependent.
[4] abbreviates: 37° C. for 60 minutes after adsorption, dose-dependent.
Where [5] appears, read: adsorption at 4° C. for 90 minutes.
Setting [6] is: 8-hours-delay treatment, 4 mg/kg of body weight/day oral.
The mark [7] stands for this setting: immediate treatment, 2 mg/kg of body weight/day oral.

T1 sequence (Q9UQM7 with tags, fused parts or gaps): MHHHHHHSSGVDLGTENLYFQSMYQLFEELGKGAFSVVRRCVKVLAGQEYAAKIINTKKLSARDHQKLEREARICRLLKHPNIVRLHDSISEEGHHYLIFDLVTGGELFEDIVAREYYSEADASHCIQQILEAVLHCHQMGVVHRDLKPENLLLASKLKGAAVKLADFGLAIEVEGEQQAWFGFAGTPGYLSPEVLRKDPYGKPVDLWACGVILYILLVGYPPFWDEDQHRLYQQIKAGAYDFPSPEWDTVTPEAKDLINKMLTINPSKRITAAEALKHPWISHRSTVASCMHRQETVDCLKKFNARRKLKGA

`COc1ccc(S(=O)(=O)N(C)CCCC(=O)c2ccc(F)cc2)cc1` [Compound 4, N-(4-(4-fluorophenyl)-4-oxobutyl)-4-methoxy-N-methylbenzenesulfonamide] had a melting point of 89 to 90 °C. In [1], the activity at 3.125 µM was found to be 101%. The viability at 6.25 µM with BE(2)C cells was 106%.
The matching figures for `COc1ccc(S(=O)(=O)N(CCCC(=O)C2CCCCC2)c2ccccc2)cc1` [Compound 6, N-(4-cyclohexyl-4-oxobutyl)-4-methoxy-N-phenylbenzenesulfonamide]: 81 to 82 °C, 63.3% and 107%.
The compound `COc1ccc(S(=O)(=O)NCCCC(=O)c2ccc(F)cc2)cc1` [Compound 3] registered a melting point of 84 to 85 °C.
Compound `CN([C@@H](Cc1ccc(OS(=O)(=O)c2cccc3cnccc23)cc1)C(=O)N1CCN(c2ccccc2)CC1)S(=O)(=O)c1cccc2cnccc12` [KN-62, reference compound] registered an IC50 against purified human CaMKII of around 1030 nM.
`O=C(CCCN(c1ccccc1)S(=O)(=O)c1ccc(Oc2ccccc2)cc1)C1CCCCCC1` [Compound 12, N-(4-cycloheptyl-4-oxobutyl)-4-phenoxy-N-phenylbenzenesulfonamide] came in with a melting point of 127 to 128 °C. Further, in data set [1], the activity at 3.125 µM was 73.4%. In addition, the viability at 6.25 µM in the data set with BE(2)C cells amounted to 95.5%.
Turning to `COc1ccc(S(=O)(=O)N(CCCC(=O)C2CCCCCC2)C2CCCCC2)cc1` [Compound 14, N-(4-cycloheptyl-4-oxobutyl)-N-cyclohexyl-4-methoxybenzenesulfonamide], the activity at 3.125 µM in [1] was 65.7%. The viability at 6.25 µM in the data set on BE(2)C cells was 97.5%.
As for `COc1ccc(S(=O)(=O)N(CCCC(=O)C2C3CC4CC(C3)CC2C4)c2ccccc2)cc1` (centres unmarked) [Compound 10, N-(4-(adamantan-2-yl)-4-oxobutyl)-4-methoxy-N-phenylbenzenesulfonamide], the melting point lay within 117 to 118 °C. Also, the activity at 3.125 µM in [1] is 51.1%. Also, the viability at 6.25 µM in the data set on BE(2)C cells was 96.7%.
Consider `COc1ccc(S(=O)(=O)N(CCCC(=O)C2CCCCCC2)c2ccccc2)cc1` [Compound 9, N-(4-cycloheptyl-4-oxobutyl)-4-methoxy-N-phenylbenzenesulfonamide], for which the overall survival result is “minor effect” with ZIKV PRVABC59 strain (8-hours-delay treatment); “did not improve” with ZIKV PRVABC59 strain (setting [2]); 60% with DENV-2 NGC-N strain (setting [2]); 60% with DENV-2 NGC-N strain (immediate treatment, 8 mg/kg of body weight/day oral). For the same compound, the “median survival time (T50)” value in the data set on ZIKV PRVABC59 strain (8-hours-delay treatment) worked out at 10 days; in the data set on ZIKV PRVABC59 strain (immediate treatment) it was 11 days; in the data set with DENV-2 NGC-N strain (8-hours-delay treatment, 2 mg/kg of body weight/day oral), 14 days; with DENV-2 NGC-N strain (setting [6]) it was 22 days; with DENV-2 NGC-N strain (setting [7]), 15 days. The viral load result in the data set with ZIKV PRVABC59 strain (setting [3]) and with DENV-2 NGC-N strain (setting [3]) was “significantly reduced” in each case. In addition, the viral-NS3 expression entry with DENV-2 PL046 strain is “dose-dependently reduced”. For the same compound, the activity at 3.125 µM in data set [1] was found to be 9.6%. Also, the “level of ZIKV entry” value with ZIKV (setting [4]) is listed as “significantly reduced”. Further, the “level of ZIKV binding/entry” value with ZIKV (MOI 10, 90 minutes at room temperature) is listed as “significantly reduced”. Besides, the “ZIKV binding to cells” value with ZIKV (setting [5]) was “no effect”. Also, the “level of DENV-2 entry” value with DENV-2 (setting [4]) is on record as “significantly reduced”. Besides, the “DENV-2 binding to cells” value with DENV-2 (setting [5]) is on record as “no effect”. Moreover, the “mice protected from mortality” value with DENV-2 NGC-N strain (setting [6]) was 40%. For the same compound, the overall animal survival entry in the data set with DENV-2 NGC-N strain (setting [7]) was “minor effect”.
`COc1ccc(S(=O)(=O)N(CCCC(O)c2ccc(F)cc2)c2ccccc2)cc1` (centres unmarked) [Compound 2, N-(4-(4-fluorophenyl)-4-hydroxybutyl)-4-methoxy-N-phenylbenzenesulfonamide]: the activity at 3.125 µM in [1] worked out at 48.5%. Also, the viability at 6.25 µM with BE(2)C cells was 76.3%.
In turn, `COc1ccc(S(=O)(=O)N(CCCC(=O)c2ccc(F)cc2)c2ccccc2)cc1` [Compound 1, N-(4-(4-fluorophenyl)-4-oxobutyl)-4-methoxy-N-phenylbenzenesulfonamide] came in with a melting point of 93 to 94 °C. Moreover, the activity at 3.125 µM in data set [1] amounted to 39.3%. In addition, the viability at 6.25 µM in the data set on BE(2)C cells amounted to 56.1%.
For `O=C(CCCN(c1ccccc1)S(=O)(=O)c1ccc(OC(F)(F)F)cc1)C1CCCC1` [Compound 11, N-(4-cyclopentyl-4-oxobutyl)-N-phenyl-4-(trifluoromethoxy)benzenesulfonamide] the same measures were 69 to 70 °C, 118% and 92.4%.
`COc1ccc(S(=O)(=O)N(CCCC(=O)C2CCCCCC2)c2ccc(C3CCCCC3)cc2)cc1` [Compound 16, N-(4-cycloheptyl-4-oxobutyl)-N-(4-cyclohexylphenyl)-4-methoxybenzenesulfonamide] came in with a melting point of 103 to 104 °C. The activity at 3.125 µM in data set [1] worked out at 13.8%.
`COc1ccc(S(=O)(=O)N(CCCC(=O)C2CCCCCC2)c2ccc3c(c2)CCCC3)cc1` [Compound 15, N-(4-cycloheptyl-4-oxobutyl)-4-methoxy-N-(5,6,7,8-tetrahydronaphthalen-2-yl)-benzenesulfonamide] came in with a melting point of 111 to 112 °C. Also, the activity at 3.125 µM in [1] was 21.5%. Also, the viability at 6.25 µM in the data set with BE(2)C cells was determined as 104%.
In turn, `COc1ccc(S(=O)(=O)N(CCCC(C)=O)c2ccccc2)cc1` [Compound 5, 4-methoxy-N-(4-oxopentyl)-N-phenylbenzenesulfonamide] had a melting point of 81 to 82 °C. The activity at 3.125 µM in [1] amounted to 101%. The viability at 6.25 µM with BE(2)C cells was determined as 106%.
With `COc1ccc(S(=O)(=O)N(CCCC(=O)C2CCC2)c2ccccc2)cc1` [Compound 7, N-(4-cyclobutyl-4-oxobutyl)-4-methoxy-N-phenylbenzenesulfonamide], the activity at 3.125 µM in data set [1] amounted to 33%. In the data set with BE(2)C cells, the viability at 6.25 µM turned out to be 93.9%. Also, the IC50 against purified human CaMKII is around 600 nM.
`Cc1ccc(S(=O)(=O)N(CCCC(=O)C2CCCCCC2)c2ccccc2)cc1` [Compound 13, N-(4-cycloheptyl-4-oxobutyl)-4-methyl-N-phenylbenzenesulfonamide]: the activity at 3.125 µM in data set [1] came out at 76.9%. Also, the viability at 6.25 µM with BE(2)C cells was determined as 99.5%.
In turn, `COc1ccc(S(=O)(=O)N(CCCC(=O)C2CCCC2)c2ccccc2)cc1` [Compound 8, N-(4-cyclopentyl-4-oxobutyl)-4-methoxy-N-phenylbenzenesulfonamide] yielded a melting point of 89 to 90 °C. The activity at 3.125 µM in [1] worked out at 25.1%.

For the origin of these results see patent publication US10494334B2, “Compounds to inhibit calcium/calmodulin dependent protein kinase II and applications thereof” (priority 2018, dated 2019).
